From US6972287B1, “Method of inhibiting amyloid protein aggregation and imaging amyloid deposits” (Pfizer Inc., priority 1999, dated 2005)
Where “and” joins values, the source holds several entries; their conditions need not be identical. Equal entries are not always repeated.

Columns and labels:
[1] = target: T1, Aβ(1-40) (Homo sapiens, UniProt P05067); assay: BASST (Beta-Amyloid Self-Seeding, Thioflavin T), inhibitors of self-seeded amyloid fibril growth; type: biochemical; details: 30 μM soluble Aβ(1-40), 37° C., 3 to 5 hours, thioflavin T fluorescence; replicate values; letter = synthetic lot; read-out: BASST (IC50 = μM)
T1 construct: […]; purchased Bachem, Torrance, Calif
T1 sequence (P05067 672-711 limits assumed): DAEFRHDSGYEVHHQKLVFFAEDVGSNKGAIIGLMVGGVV
Procedure: (§1) An assay for inhibitors of self-seeded amyloid fibril growth
Assay Buffer—50 mM sodium phosphate, pH 7.5, 100 mM NaCl, 0.02% NaN3, 1 M urea (filter and store at 4° C.)
(§2) Typically, the solution should be stored until no lag phase is seen in the assay.
The following are the amounts of the components of the reaction mixture that result in each of the 50 assay wells:
• 1) Prepare the reaction mix above by mixing the components and storing on ice. • 2) Pipet 14.5 μL of reaction mixture into each of 50 wells of a polystyrene U-bottom 96-well microtiter plate (Corning 25881-96) on ice. • 3) Add 1.7 μL of diluted compound to be tested to each well in a column of eight, including solvent control. Serial 3-fold dilutions from 1 mM (100 μM final) in assay buffer−urea=7 dilutions+zero. Each 96-well plate can therefore accommodate 11 samples+1 Congo Red control (0.039-5 μM final in 2-fold steps). • 4) Seal the plate with aluminum film and incubate for 10 minutes on ice. • 5) Raise the temperature to 37° C. and incubate for 3 to 5 hours (depends on the lot of the peptide). • 6) Remove the aluminum film and add 250 μL/well of 5 μM thioflavin T (ThT) [T-3516, Sigma-Aldrich] in 50 mM glycine-NaOH, pH 8.5. Read fluorescence on a plate reader (ex=440 nm/20 nm; em=485 nm/20 nm) within 5 minutes. BAPA (Beta-Amyloid Peptide Aggregation)

[2] = target: T1, Aβ(1-40); assay: BASSR (Beta-Amyloid Self-Seeding Radioassay), inhibitors of self-seeded amyloid fibril growth; type: biochemical; details: 30 μM soluble Aβ(1-40) + 125I-labeled Aβ(1-40), 37° C., 3 to 5 hours; replicate values; letter = synthetic lot; ppt = precipitate; V-shaped = inhibition followed by precipitation
Procedure: BASSR (Beta-Amyloid Self-Seeding Radioassay)
as §1
Assay Buffer—50 mM sodium phosphate, pH 7.5, 100 mM NaCl, 0.02% NaN3, 1 M urea (filter and store at 4° C.).
as §2
^125I-labeled Aβ(1-40)—150K-350K cpm/μL in 100% acetonitrile—0.1% trifluoroacetic acid (TFA)—1% β-mercaptoethanol (aliquots stored at −20° C.). ^125I-labeled Aβ(1-40) can be made in accordance with the procedure set forth by H. LeVine, III in Neurobiol. Aging, 16, 755, (1995), which is hereby incorporated by reference, or this reagent may be purchased from Amersham, Arlington Heights, Ill.
The following are the amounts of the components of the reaction mixture sufficient for 50 assay wells:
• 1) Prepare reaction mixture above by mixing components and storing on ice. • 2) Pipet 14.5 μL of reaction mixture into each of 50 wells on a polypropylene U-bottom 96-well microtiter plate on ice. (Costar 3794). • 3) Add 1.7 μL of diluted compound to be tested to each well in a column of eight, including solvent control. Serial 3-fold dilutions from 1 mM (100 μM final) in assay buffer−urea=7 dilutions+zero. Each 96-well plate can therefore accommodate 11 samples+1 Congo Red control (0.039-5 μM final in 2-fold steps). • 4) Seal the plate with aluminum film (Beckman 538619) and incubate for 10 minutes on ice. • 5) Raise the temperature to 37° C. and incubate for 3 to 5 hours (depending on the lot of the peptide). • 6) Remove the aluminum film and add 200 μL/well of ice cold assay buffer with urea, collecting the radiolabeled fibrils by vacuum filtration through 0.2 μm pore size GVWP filters in 96-well plates (Millipore MAGV N22, Bedford, Mass.). Determine the radioactivity of the filters using standard methods well-known to those skilled in the art. BASST (Beta-Amyloid Self-Seeding, Thioflavin T)

[3] = target: T2, Aβ (1-42) (Homo sapiens, UniProt P05067); assay: BATYM assay (Aβ (1-42) aggregation, Thioflavin T fluorescence); type: biochemical; details: Aβ 1-42 final concentration 100 μM, 37° C., 1 day, letter = synthetic lot
T2 construct: Required Aβ (1-42) (California Peptide) was dried from its hexafluoroisopropanol (HFIP) stock solution; purchased California Peptide
T2 sequence (P05067 672-713 limits assumed): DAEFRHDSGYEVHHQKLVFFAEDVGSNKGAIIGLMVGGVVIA
Procedure: Required Aβ (1-42) (California Peptide) was dried from its hexafluoroisopropanol (HFIP) stock solution. The Aβ (1-42) was dissolved in dimethylsulfoxide (DMSO) and then mixed with phosphate buffered saline (PBS) (pH 7.4). The mixed Aβ (1-42) solution was filtered with a 0.2 μm Omnipore membrane syringe filter Millipore, Bedford, Mass.). The compound to be tested in DMSO (50 times concentrate) was put into each well (0.5 μL/well) of a 96-well plate. The Aβ (1-42) solution was added into each well (24.5 μL/well). The plate was centrifuged at 1,000 g for 5 minutes and incubated at 37° C. for 1 day (Aβ 1-42; final concentration 100 μM).
After incubation Thioflavin T (ThT) (30 μM) solution in glycine-NaOH buffer (pH 8.5, 50 mM) was added into each well (250 μL/well), fluorescence was measured (ex=440/20 nm, em=485/20 nm) using a fluorescence plate reader. The inhibitory activity was calculated as the reduction of fluorescence with the following formula: Inhibition (%)={(F(Aβ)−F(Aβ+compound)}/{F(Aβ)−[…]}×100
The IC50s were calculated by a curve fitting program using the following equation. The data were obtained from two different experiments in triplicate.
x=Concentration of tested compound (M),

[4] = target: T3, Aβ (1-40) peptide (Homo sapiens, UniProt P05067); assay: BAPA (Beta-Amyloid Peptide Aggregation, pH 6.0, filtration); type: biochemical; details: Aβ (1-40) 33 μM, pH 6.0, 2 to 4 hours at room temperature; replicate values; letter = synthetic lot
T3 construct: 10 μL 0.5 mg/mL Aβ (1-40) peptide in 20% HFIP
T3 sequence (P05067 672-711 limits assumed): as the sequence (P05067 672-711 limits assumed) above
Procedure: Each 96-well plate can therefore accommodate 11 samples+1 Congo Red control (0.039-5 μM final in 2-fold steps). • 4) Seal the plate with aluminum film and incubate for 10 minutes on ice. • 5) Raise the temperature to 37° C. and incubate for 3 to 5 hours (depends on the lot of the peptide). • 6) Remove the aluminum film and add 250 μL/well of 5 μM thioflavin T (ThT) [T-3516, Sigma-Aldrich] in 50 mM glycine-NaOH, pH 8.5. […] The purpose of this assays is to provide a higher volume method of assaying the amount of beta amyloid aggregation using an endpoint assay based on filtration. In this assay, hexafluoroisopropanol (HFIP) is used to break down the initial amyloid peptide to a monomer state and use a concentration of 33 μM which is high enough so that aggregation will occur at pH 6.0 in several hours. Methods: […] Then, we incubate for 2 to 4 hours at room temperature. […] We wash the filter plate with 100 μL of the same phosphate buffer. Aggregation was detected on a Microbeta counter after impregnating the filters with Meltilex (1450-441) and is corrected for background.

Structure (SMILES) | IC50 [1] | IC50 [2] | IC50 [3] [µM] | IC50 [4] [µM] | melting point [°C]
CCCN(CCC)c1cccc(CCCc2ccc(Nc3ccccc3C(=O)O)cc2)c1 [Example 27, 2-{4-[3-(3-Dipropylaminophenyl)propyl]phenylamino}benzoic acid] | 3 µM | > 100 µM | 19.8 | 74 | –
CCN(CC)c1ccc(CCCc2ccc(N(CC)c3ccccc3C(=O)O)cc2)cc1 [Example 30, 2-(N-{4-[3-(4-Diethylaminophenyl)propyl]phenyl}-N-ethylamino)benzoic acid] | 4 µM and 2 µM | 30 µM and 20 µM | 75.3 | 38 | –
CCN(CC)c1cccc(CCCc2ccc(Nc3ccccc3C(=O)O)cc2)c1 [Example 32, 2-{4-[3-(3-Diethylaminophenyl)propyl]phenylamino}benzoic acid] | 1 µM | > 100 µM | 29.2 | 96 | –
CN(C)c1ccc(CCCc2ccc(Nc3ccccc3C(=O)O)cc2)cc1 [Example 34, 2-{4-[3-(4-Dimethylaminophenyl)propyl]phenylamino}benzoic acid] | 3 µM | 45 µM | 45 | 48 | –
CCCN(CCC)c1ccc(CCCc2ccc(Nc3ccccc3C(=O)O)cc2)cc1 [Example 43, 2-{4-[3-(4-Dipropylaminophenyl)propyl]phenylamino}benzoic acid] | 0.3 µM | > 100 µM | 24.2 | 63 | –
CCCCN(CCCC)c1ccc(CCCc2ccc(Nc3ccccc3C(=O)O)cc2)cc1 [Example 44, 2-{4-[3-(4-Dibutylaminophenyl)propyl]phenylanino}benzoic acid] | 1 µM | > 100 µM | 26.5 | 52 | –
CCCCN(CCCC)c1cccc(CCCc2ccc(Nc3ccccc3C(=O)O)cc2)c1 [Example 45, 2-{4-[3-(3-Dibutylaminophenyl)propyl]phenylamino}benzoic acid] | 1 µM | > 100 µM | 21.5 | 32 | –
Clc1ccc(CCc2ccc(Nc3ccccc3-c3nnn[nH]3)cc2)cc1Cl [Example 68, {4-[2-(3,4-Dichloro-phenyl)-ethyl]-phenyl}-[2-(1H-tetrazol-5-yl)phenyl]-amine] | 1 µM | > 100 µM | > 100 | 110 | –
O=C(O)c1ccccc1Nc1ccc(CCc2ccc(Cl)c(Cl)c2)cc1 [Example 117, 2-{4-[2-(3,4-Dichloro-phenyl)-ethyl]-phenylamino}-benzoic acid monosodium] | 3 µM | > 100 µM | 61.3 | > 100 | –
O=C(O)c1ccccc1Nc1ccc(CCc2ccc(Nc3ccccc3C(=O)O)cc2)cc1 [Example 136, 2-{4-[2-(4-{2-Hydroxycarbonylphenylamino}phenyl)ethyl]-phenylamino}-benzoic acid] | 3 µM | > 100 µM | > 100 | 53 | –
COc1cc(Nc2ccc(CCCc3ccc(Cl)c(Cl)c3)cc2)c([N+](=O)[O-])cc1C(=O)O [Example 138, 4-{4-[3-(3,4-Dichloro-phenyl)propyl]-phenylamino}-2-methoxy-5-nitro-benzoic acid] | – | – | – | – | 74 to 78
O=C(O)c1cc(F)ccc1Nc1ccc(CCCc2ccc(Cl)c(Cl)c2)cc1 [Example 139, 2-{4-[3-(3,4-Dichloro-phenyl)-propyl]-phenylamino}-5-fluoro-benzoic acid] | – | – | – | – | 122 to 123
Nc1ccc(Nc2ccc(CCCCCc3ccc(Cl)c(Cl)c3)cc2)c(C(=O)O)c1 [Example 140, 5-Amino-2-{4-[5-(3,4-dichloro-phenyl)pentyl]-phenylamino}-benzoic acid] | – | – | – | – | 182 to 184
O=C(NS(=O)(=O)C(F)(F)F)c1ccccc1Nc1ccc(CCCc2ccc(Cl)c(Cl)c2)cc1 [Example 141, N-(2-{4-[3-(3,4-Dichloro-phenyl)-propyl]-phenylamino}-benzoyl)-C,C,C,-trifluoro-methanesulfonamide] | 7 µM | > 100 µM | 56.7 | > 50 | –
O=C(NS(=O)(=O)c1ccccc1)c1ccccc1Nc1ccc(CCCc2ccc(Cl)c(Cl)c2)cc1 [Example 142, N-(2-{4-[3-(3,4-Dichloro-phenyl)propyl]-phenylamino}-benzoyl)-benzenesulfonamide] | 2.1 µM | > 100 µM | 26.9 | 55 | –
O=C(O)c1cccc(C(F)(F)F)c1Nc1ccc(CCc2ccc(Cl)c(Cl)c2)cc1 [Example 146, 2-{4-[2-(3,4-Dichloro-phenyl)-ethyl]-phenylamino}-3-trifluoromethyl-benzoic acid] | 30 µM | > 100 µM | > 100 | > 60 | –
CCCN(CCC)c1ccc(Nc2ccc(CCc3ccc(Cl)c(Cl)c3)cc2)c(C(=O)O)c1 [Example 149, 2-{4-[2-(3,4-Dichlorophenyl)-ethyl]-phenylamino}-5-dipropylamino-benzoic acid] | > 100 µM | > 100 µM | > 100 | > 60 | –
CCCCN(CCCC)c1ccc(Nc2ccc(CCc3ccc(Cl)c(Cl)c3)cc2)c(C(=O)O)c1 [Example 150, 5-Dibutylamino-2-{4-[2-(3,4-dichloro-phenyl)-ethyl]-phenylamino}-benzoic acid] | 10 µM | > 100 µM | > 100 | 76 | –
